According to paper PMC10296995, “Phospholipid Encapsulation of an Anti-Fibrotic Endopeptide to Enhance Cellular Uptake and Myocardial Retention” (Cells, 2023):
Where a SMILES comes first, the peptide text is derived from it.

Assays:
[1] = rapid breakdown by angiotensin-converting enzymes; cited from earlier work
From the text: (a) Schematic representation of free Ac-SDKP, a liposome (a lipid bilayer nanoparticle), and L-Ac-SDKP (Ac-SDKP inside the liposome). (b,c) Representative graphs of liposome size distribution and zeta potential, respectively, by nanoparticle tracking analysis. Comparative data for empty liposome (L-PBS) and L-Ac-SDKP for (d) size, (e) polydispersity, and (f) zeta potential. (g), Ac-SDKP concentration in the liposomal formulations (L-PBS vs. L-Ac-SDKP). Cryo-TEM images of L-Ac-SDKP (h) and empty liposome (L-PBS) (i) and a comparative data for size (j). Scale ...

[2] = tested on: human cardiac fibroblasts; test: MTT cell viability assay, cardiac fibroblasts; assay type: cell-based; conditions: 0.24 µg/mL, 24 h, n = 7-8
Protocol: To access cell viability and proliferation in response to the liposome-peptide, Thiazolyl Blue Tetrazolium Bromide (MTT; Sigma-Aldrich, M2128) assay was performed. Briefly, human cardiac fibroblasts (Lifeline Cell Technology, San Diego, CA, USA #FC-0060) and RAW macrophages were plated into 96-well plates at a density of 8000–10,000 cells/well. After 24 h, cells were serum-starved overnight, followed by incubation in empty liposomes and PBS (L-PBS), L-Ac-SDKP (0.24 µg/mL), or Ac-SDKP (0.24 µg/mL) for an additional 24 h. After this, the media were replaced, and the cells were incubated in the MTT substrate for 3.5 h at 37 °C. The yellow-orange colored product, a stable soluble formazan, was quantified at 450 nm using a microplate reader. Relative viability was calculated in relation to the cells treated with culture media alone as a control.

[3] = tested on: primary mouse cardiac fibroblasts; test: Cellular uptake by flow cytometry, cardiac fibroblasts; assay type: cell-based; conditions: FITC-labeled peptide 0.24 µg/mL, 4 h, mean ± SD, n = 4
Protocol: Cellular uptake of L-Ac-SDKP was assessed in mouse cardiac fibroblasts and macrophages. Briefly, cultured macrophages (RAW 264.7 cells, ATCC) and primary mouse cardiac fibroblasts were incubated with L-Ac-SDKP or free peptides (Ac-SDKP) at a concentration of 0.24 µg/mL. For the intracellular distribution assay, cells were cultured on sterile coverslips, incubated with Ac-SDKP or L-Ac-SDKP for 4 h, fixed with 4% paraformaldehyde, mounted, and imaged using a fluorescence microscope (Zeiss LSM 800 laser scanning microscope) at ×400 magnification. For quantification of the peptide uptake, cells were detached and examined with a BD Accuri C6-Plus flow cytometer and further analyzed by FCS Express 6-De Novo software, […].

percentage of FITC-positive cardiac fibroblasts (uptake) [3]: 8.5% ± 2.96
SMILES: CC(=O)N[C@@H](CO)C(=O)N[C@@H](CC(=O)O)C(=O)N[C@@H](CCCCN)C(=O)N1CCC[C@H]1C(=O)O [Ac-SDKP, N-acetyl-ser-asp-lys-pro] (Ac-SDKP-OH)
plasma half-life [1]: 4.5 min
percent cell viability, cardiac fibroblasts [2]: did not affect percent cell viability
